Assay results reported in US7692011B2, “8-hydroxy and 8-mercapto quinazolinones” (Prana Biotechnology Limited, priority 2002, dated 2010).
Several values for one entry are separate records, joined by “and”; a condition that tells them apart may be missing. Identical values can stand only once.

Assays:
[1] = test system: Aβ from post mortem human AD brain; assay: Assay 9 Human brain amyloid solubilisation assay; type: biochemical; design: key: (+): effective at solubilising plaques at more than 1 concentration relative to PBS; (−): not effective at solubilising plaques relative to PBS; details: relative to PBS
Experimental: Assay 9. Human Brain Amyloid Solubilisation Assay
This assay was performed in order to assess the ability of a test compound to mobilise Aβ from the insoluble to the soluble phase of an extract of tissue from post mortem human AD brain.
Up to 0.5 g of plaque-bearing cortex without meninges was homogenized using a DIAX 900 homogenizer (Heudolph and Co, Kelheim, Germany) or other suitable device for three 30-second periods at full speed in up to 2 ml of ice-cold phosphate-buffered saline, pH 7.4. To obtain the phosphate-buffered saline-extractable fraction, the homogenate was centrifuged at 100,000×g for 30 min and the supernatant removed. […]
Tris-Tricine polyacrylamide gel electrophoresis was performed by loading appropriately diluted samples on to 10% to 20% gradient gels (Novex, San Diego, Calif.) followed by transfer on to 0.2-μm nitrocellulose membrane (Bio-Rad, Hercules, Calif.). Aβ was detected by using monoclonal antibody W02, which detects residues 5 through 8, 17 (or another suitable antibody) in conjunction with horseradish peroxidase-conjugated rabbit anti-mouse IgG (Dako, Denmark), and visualized by using enhanced chemiluminescence (eg ECL; Amersham Life Science, Buckinghamshire, UK). […]
All samples were analysed several times, and gel loadings and dilutions were adjusted to fit within the quantifiable region of the standard curve. […]

[2] = Assay 16 Determination of mouse plasma levels of test compounds; type: in vivo; details: for Conc. in mouse plasma: oral 30 mg/kg
From the text: [formula] [formula] [formula] • CLtotal=total plasma clearance after IV administration • Vdβ=volume of distribution during the elimination phase after IV administration • BA=oral bioavailability • AUCIV=area under the plasma concentration versus time profile from time zero to infinity after IV administration • AUCoral=area under the plasma concentration versus time profile from time zero to infinity after oral administration • β=terminal elimination rate constant after IV administration Assay 16 Determination of Mouse Plasma Levels of Test Compounds PBT 1061
(§1) Oral administration of PBT 1061 at 30 mg/kg, as a suspension in Na-Carboxymethyl Cellulose (CMC) was administered by oral gavage to four mice. Two mice were sacrificed 30 minutes after administration and two mice were sacrificed 60 minutes after administration. Blood was obtained by cardiac puncture and plasma separated by centrifugation.
The concentration of PBT1061 was determined by LC/MS using the ZQ instrument. The mobile phase consisted of an acetonitrile (ACN)/water gradient (containing 0.05% Formic acid) and the column was a Phenomenex Polar-RP […] 80A (50×2 mm) column.
The mouse plasma samples were directly injected following a protein precipitation with ACN. The analytical method in plasma was linear in the range of 125 to 10,000 ng/ml (R^2=0.9992). Diazepam was used as the internal standard. Recovery of PBT1061 from plasma was ˜100%.
as §1, with “1063” for “1061”
The concentration of PBT1063 was determined by LC/MS using the single quadrupole instrument. The mobile phase consisted of an acetonitrile (ACN)/water gradient (containing 0.05% Formic acid) and the column was a Phenomenex C8 4 μm 80A (50×2 mm) column.
The supplied acute toxicity mouse plasma samples (delivered Feb. 9, 2003) were directly injected following a protein precipitation with ACN. Concentrations were determined by comparison to a calibration curve prepared in rat plasma. The analytical method in plasma was linear in the range of 312 to 10,000 ng/ml (R^2=0.9976). Diazepam was used as the internal standard. Recovery of PBT1063 from plasma was ˜42.9%.

SMILES | Assay 9 Brain amyloid solubilisation [1] | Conc. in mouse plasma ([2]; 30 min, individual mouse) | Conc. in mouse plasma ([2]; 60 min, individual mouse) | concentration at 30 min ([2]; mouse, plasma, po, 30 mg/kg, 30 min, individual mouse (Table 2), read-out: Conc. in mouse plasma) | concentration at 60 min ([2]; mouse, plasma, po, 30 mg/kg, 60 min, individual mouse (Table 2), read-out: Conc. in mouse plasma) | Conc. in mouse plasma ([2]; 30 min, individual mouse (Table 2)) | Conc. in mouse plasma ([2]; 60 min, individual mouse (Table 2))
Oc1c(N2CCOCC2)ncc2cccnc12 [PBT-1053, 7-Morpholin-4-yl-[1,6]naphthyridin-8-ol] | (+) | – | – | – | – | – | –
O=c1c2c(Cl)cc(Cl)c(O)c2ncn1C1CC1 [PBT-1061, 5,7-Dichloro-3-cyclopropyl-8-hydroxy-3H-quinazolin-4-one] | (+) | 1826.61 ng/mL and 5475.88 ng/mL | 2417.55 ng/mL and 1115.24 ng/mL | – | – | – | –
O=c1c(-c2ccc(Cl)cc2)cnc2c(O)c(I)ccn12 [PBT-1063, 3-(4-Chlorophenyl)-9-hydroxy-8-iodopyrido[1,2-a]pyrimidin-4-one] | – | – | – | 413 ng/mL | 331 ng/mL | 279.39 ng/mL | 439.49 ng/mL
